# Tests used:
# unstable plaques = experiment: In vivo treatment of tandem stenosis mice, plaque collagen quantification (Picrosirius Red); design: species or system mouse; settings: tandem stenosis ApoE knock out mice, 2 tail vein injections 2 weeks apart, killed 2 weeks after second dose, PBS 14.40±4.522
# Description: As described elsewhere herein, at 12 weeks of age and 6 weeks after commencement of high fat diet, ApoE−/− mice (C57BL/6J background) were anaesthetized by intraperitoneal injection of a mixture of ketamine (100 mg/kg) and xylazine (10 mg/kg). An incision was made in the neck and the right common carotid artery exposed by dissecting away circumferential connective tissue. A tandem stenosis with 150 μm outer diameter was introduced with the distal stenosis placed 1 mm from the carotid artery bifurcation and the proximal stenosis 3 mm from the distal stenosis. A 6-0 blue braided polyester fibre suture was tied around the carotid artery and a 150 μm needle to achieve the stenosis diameter of 150 μm and the needle was subsequently removed after the suture was secured. The incision wound was sutured close and the mice resumed their high fat diet. […]
# Collagen quantification of the Picrosirius Red slides were performed using Image J software (National Institute of Health USA). […] For each section, the quantity of plaque collagen is expressed as the percentage of collagen within the plaque: […]
# All quantitative data was analysed by PRISM 6 (GraphPad Software Inc.) and reported as mean +/− one standard deviation. […] Unpaired t test with Welch's correction was also used to analyse the collagen quantification data for the mouse in vivo treatment experiments. […]
# MMP14 = experiment: Assay of MMP14 activity (FRET peptide) in HT1080 cells treated with Naphthofluorescein; assay type: cell-based, human; settings: n=3, untreated cells 473.7±20.93
# Description: Detection of Cy 3.5 signals of the MMP14 FRET peptide was performed using the FLUOstar OPTIMA BMG LABTECH 96 microplate fluorescence reader standardized for optic settings of excitation 544 nm and emission 590 nm, temperature settings at 37° C., with readings taken every 10 minutes over a 120 minute duration and double orbital shaking at a width of 4 mm 1 second prior to each cycle. All confocal live cell studies were performed using the Nikon Air inverted microscope (Tokyo, Japan) with live cell imaging chamber (designed by Monash Micro imaging). Tissue sections were obtained by cryo-sectioning frozen tissue using the Leica CM1950 cryostat (Leica Microsystems, Germany).
# A peptide sequence that is preferentially cleaved by MMP14 was used to create a FRET probe with N terminal Cy3.5 and C terminal BHQ (Black Hole Quencher): Cy3.5 SGRIGFLRTACBHQ2 (SEQ ID NO:13). The presence of MMP14 activity cleaves this peptide and separates the Cy3.5 from BHQ. […] The cells were centrifuged at 4000 rcf for 5 minutes, cell pellet was resuspended in PBS containing calcium and magnesium and counted using a haemocytometer. […] The 96 well microplate was incubated at 37° C. inside the FluorSTAR Optima fluorescent microplate reader for 2 hours while Cy 3.5 signal readings in the (Ex544, Em590) channel were taken every 10 minutes. […] The readings were plotted as bar charts in Prism software. […]
smiles,measurement,setting,value
O=C1OC2(c3ccccc31)c1ccc3cc(O)ccc3c1Oc1c2ccc2cc(O)ccc12 [Naphthofluorescein],collagen percentage of the plaque area,unstable plaques,18.87+5.308 percentage of the plaque area
same,Cy3.5 increase (MMP14 FRET peptide),"MMP14; HT1080 cells treated with 20 μM unaltered free Naphthofluorescein for 1 week, time zero to 120 minutes",125.0±17.04
same,"Cy3.5 increase (MMP14 FRET peptide), pH 5 rendered drug","MMP14; HT1080 cells, Naphthofluorescein pre-treated in HCl solution at pH 5 for 30 minutes then neutralised with NaOH",126.7±2.728
